Experiment [1] addresses T1, Recombinant Rho kinase (fused protein composed of bovine Rho kinase catalytic region and glutathione S-transferase) (Bos taurus, UniProt Q28021).
T1 construct: fused protein composed of bovine Rho kinase catalytic region and glutathione S-transferase; glutathione S-transferase (GST); made in house; host or cells: insect cells infected with baculovirus
The experiment is described as follows: Rho kinase inhibitory activity (phosphorylation of S6 231-239 substrate with γ32P-ATP). Particulars: concentration inhibiting substrate phosphorylation by 50%. The experiment is classed as biochemical. Here is the method: This permits the substrate to be labeled with the radioisotope.
Thereafter, the substrate was adsorbed to a filter paper. ATP was washed away with a phosphoric acid solution, and the amount of the phosphorylated substrate was then measured with a liquid scintillation counter.

For experiment [2], the system named is Mouse-derived CCR2 overexpressing human-derived histiocyte lymphoma (U937/CCR2). Briefly: Leukocyte migration inhibitory activity (MCP-1 induced migration, CHEMOTAXICELL). The experiment is classed as cell-based. As to conditions: U-937, test compound concentration 10 μg/ml, MCP-1 ligand, migration 1 hr. Here is the method:
Mouse-derived CCR2 overexpressing human-derived histiocyte lymphoma (U937/CCR2), was suspended in a 0.1% BSA-containing RPMI 1640 medium, to which a test compound had been added (5×10^6/ml), and the suspension was incubated for 20 min. A chemical solution (500 μl) (0.1% BSA-containing RPMI 1640 medium DMSO 1%), to which an MCP-1 ligand (1 μM) and the test compound had been added, was added to a 24-well plate. CHEMOTAXICELL was put thereon, and 200 μl of the cell suspension was added to the top layer, followed by migration under a 5% CO2 atmosphere at 37° C. for one hr. The number of cells, which had migrated to the lower chamber, was counted with a particle count analyzer (CDA-500, SYSMEX CORPORATION), and the percentage migration inhibition was calculated by the following equation: Migration inhibition (%)=(1−number of migrated cells in the presence of test compound/number of migrated cells in the absence of test compound)×100

T1 sequence (Q28021 92-354 limits assumed): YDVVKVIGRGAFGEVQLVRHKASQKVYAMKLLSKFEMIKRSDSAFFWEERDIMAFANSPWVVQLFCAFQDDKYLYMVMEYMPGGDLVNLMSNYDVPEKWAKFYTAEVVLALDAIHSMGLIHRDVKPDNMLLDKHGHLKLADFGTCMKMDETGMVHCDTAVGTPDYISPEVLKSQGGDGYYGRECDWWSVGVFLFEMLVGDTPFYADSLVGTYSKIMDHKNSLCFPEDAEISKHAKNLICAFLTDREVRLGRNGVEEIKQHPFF

A word on the IC50: it is the midpoint of a concentration-inhibition curve. Usually inhibition stands for the change of the read-out against control, counted positive when it falls. On to `Fc1ccc(CN2CCC(Nc3cccc4cnccc34)C2)cc1` (stereo not drawn) [Example 4, N5-[1-(4-Fluorobenzyl)tetrahydro-1H-3-pyrrolyl]-5-isoquinolylamine], for which the IC50 in experiment [1] is 93 nM. In addition, the inhibition at 10 µg/mL in experiment [2] was 98%. In the same order, the values of `Clc1cccc(CN2CCC(Nc3cccc4cnccc34)C2)c1` (stereo not drawn) [Example 2, N5-[1-(3-Chlorobenzyl)tetrahydro-1H-3-pyrrolyl]-5-isoquinolylamine] are 63 nM and 90%.

As to `c1csc(CN2CCCC(Nc3cccc4cnccc34)C2)c1` (stereo not drawn) [Example 41, N-(5-Isoquinolinyl)-N-[1-(2-thienylmethyl)-3-piperidyl]amine], the IC50 in experiment [1] turned out to be 190 nM. As to `c1cc(NC2CCCN(Cc3ccncc3)C2)c2ccncc2c1` (stereo not drawn) [Example 34, N-(5-Isoquinolinyl)-N-[1-(4-pyridylmethyl)-3-piperidyl]amine], the IC50 in experiment [1] turned out to be 1500 nM. For `Fc1cccc(F)c1CN1CCC(Nc2cccc3cnccc23)C1` (stereo not drawn) [Example 5, N5-[1-(2,6-Difluorobenzyl)tetrahydro-1H-3-pyrrolyl]-5-isoquinolylamine], in experiment [1], the IC50 was 73 nM. Also, in experiment [2], the inhibition at 10 µg/mL is 93%. Regarding `Nc1ccccc1CN1CCCC(Nc2cccc3cnccc23)C1` (stereo not drawn) [Example 35, N5-[1-(2-Aminobenzyl)-3-piperidyl]-5-isoquinolylamine], in experiment [1], the half-inhibitory concentration (IC50) is 270 nM. Consider `Nc1cc(Cl)ccc1CN1CCC(Nc2cccc3cnccc23)C1` (stereo not drawn) [Example 19, N5-[1-(2-Amino-4-chlorobenzyl)tetrahydro-1H-3-pyrrolyl]-5-isoquinolylamine], for which the IC50 in experiment [1] is 240 nM. In experiment [2], the inhibition at 10 µg/mL came to 82%.

In the case of `c1cc(NC2CCCN(Cc3cc[nH]c3)C2)c2ccncc2c1` (stereo not drawn) [Example 40, N-(5-Isoquinolinyl)-N-[1-(1H-3-pyrrolylmethyl)-3-piperidyl]amine], the IC50 in experiment [1] was 670 nM.

Regarding `Clc1ccccc1CN1CCCC(Nc2cccc3cnccc23)C1` (stereo not drawn) [Example 20, N5-[1-(2-Chlorobenzyl)-3-piperidyl]-5-isoquinolylamine], the IC50 in experiment [1] amounted to 210 nM. The inhibition at 10 µg/mL in experiment [2] amounted to 69%.

For the compound `c1ccc(CN2CCC(Nc3cccc4cnccc34)C2)nc1` (stereo not drawn) [Example 13, N-(5-Isoquinolyl)-N-[1-(2-pyridylmethyl)tetrahydro-1H-3-pyrrolyl]amine], the IC50 in experiment [1] amounted to 480 nM.

On to `Nc1ccccc1CN1CCC(Nc2cccc3cnccc23)C1` (stereo not drawn) [Example 16, N5-[1-(2-Aminobenzyl)tetrahydro-1H-3-pyrrolyl]-5-isoquinolylamine], for which the IC50 in experiment [1] turned out to be 210 nM. The inhibition at 10 µg/mL in experiment [2] amounted to 99%. Turning to `c1c[nH]c(CN2CCCC(Nc3cccc4cnccc34)C2)c1` (stereo not drawn) [Example 39, N-(5-Isoquinolinyl)-N-[1-(1H-2-pyrrolylmethyl)-3-piperidyl]amine], the IC50 in experiment [1] was 23 nM. Consider `Clc1ccccc1CN1CCC(Nc2cccc3cnccc23)C1` (stereo not drawn) [Example 1, N5-[1-(2-Chlorobenzyl)tetrahydro-1H-3-pyrrolyl]-5-isoquinolylamine], for which, in experiment [1], the half-maximal inhibitory concentration (IC50) is 99 nM. Moreover, the inhibition at 10 µg/mL in experiment [2] came to 86%. Consider `Cc1ccc(CN2CCC(Nc3cccc4cnccc34)C2)cc1` (stereo not drawn) [Example 7, N-(5-Isoquinolyl)-N-[1-(4-methylbenzyl)tetrahydro-1H-3-pyrrolyl]amine], for which the IC50 in experiment [1] was found to be 96 nM. Moreover, in experiment [2], the inhibition at 10 µg/mL was 103%. As for `c1cncc(CN2CCCC(Nc3cccc4cnccc34)C2)c1` (stereo not drawn) [Example 33, N-(5-Isoquinolinyl)-N-[1-(3-pyridylmethyl)-3-piperidyl]amine], in experiment [1], the IC50 came out at 1000 nM.

For `O=[N+]([O-])c1ccc(CN2CCCC(Nc3cccc4cnccc34)C2)cc1` (stereo not drawn) [Example 30, N-(5-Isoquinolinyl)-N-[1-(4-nitrobenzyl)-3-piperidyl]amine], the IC50 in experiment [1] came to 1800 nM. Turning to `Nc1ccc(CN2CCC(Nc3cccc4cnccc34)C2)cc1` (stereo not drawn) [Example 18, N5-[1-(4-Aminobenzyl)tetrahydro-1H-3-pyrrolyl]-5-isoquinolylamine], the IC50 in experiment [1] stood at 230 nM. Besides, the inhibition at 10 µg/mL in experiment [2] was 94%.

Turning to `O=[N+]([O-])c1cc(Cl)ccc1CN1CCC(Nc2cccc3cnccc23)C1` (stereo not drawn) [Example 12, N5-[1-(4-Chloro-2-nitrobenzyl)tetrahydro-1H-3-pyrrolyl]-5-isoquinolylamine], in experiment [1], the half-inhibitory concentration (IC50) is 1300 nM. The same measure, in the same setting: in the case of `c1coc(CN2CCCC(Nc3cccc4cnccc34)C2)c1` (stereo not drawn) [Example 43, N-[1-(2-Furylmethyl)-3-piperidyl]-N-(5-isoquinolyl)amine] it was 200 nM. Still for that read-out and setting: the figure for `Fc1cccc(F)c1CN1CCCC(Nc2cccc3cnccc23)C1` (stereo not drawn) [Example 24, N5-[1-(2,6-Difluorobenzyl)-3-piperidyl]-5-isoquinolylamine] is 230 nM; for `c1cc(NC2CCCN(Cc3ccsc3)C2)c2ccncc2c1` (stereo not drawn) [Example 42, N-(5-Isoquinolinyl)-N-[1-(3-thienylmethyl)-3-piperidyl]amine] it is 31 nM. Turning to `Nc1cccc(CN2CCCC(Nc3cccc4cnccc34)C2)c1` (stereo not drawn) [Example 36, N5-[1-(3-Aminobenzyl)-3-piperidyl]-5-isoquinolylamine], in experiment [1], the IC50 came to 310 nM. The same measure, in the same setting: in the case of `Clc1cccc(Cl)c1CN1CCC(Nc2cccc3cnccc23)C1` (stereo not drawn) [Example 6, N5-[1-(2,6-Dichlorobenzyl)tetrahydro-1H-3-pyrrolyl]-5-isoquinolylamine] it was 140 nM; in that of `O=[N+]([O-])c1cccc(CN2CCC(Nc3cccc4cnccc34)C2)c1` (stereo not drawn) [Example 10, N-(5-Isoquinolyl)-N-[1-(3-nitrobenzyl)tetrahydro-1H-3-pyrrolyl]amine], 200 nM; in that of `CC(C)c1ccc(CN2CCC(Nc3cccc4cnccc34)C2)cc1` (stereo not drawn) [Example 8, N5-[1-(4-Isopropylbenzyl)tetrahydro-1H-3-pyrrolyl]-5-isoquinolylamine], 200 nM.

Take `c1cc(NC2CCN(Cc3ccncc3)C2)c2ccncc2c1` (stereo not drawn) [Example 15, N-(5-Isoquinolyl)-N-[1-(4-pyridylmethyl)tetrahydro-1H-3-pyrrolyl]amine]: in experiment [1], the IC50 came out at 1100 nM.

For the compound `Clc1ccc(CN2CCC(Nc3cccc4cnccc34)C2)cc1` (stereo not drawn) [Example 3, N5-[1-(4-Chlorobenzyl)tetrahydro-1H-3-pyrrolyl]-5-isoquinolylamine], the IC50 in experiment [1] turned out to be 66 nM. The inhibition at 10 µg/mL in experiment [2] turned out to be 101%. Consider `Clc1ccc(CN2CCCC(Nc3cccc4cnccc34)C2)cc1` (stereo not drawn) [Example 22, N5-[1-(4-Chlorobenzyl)-3-piperidyl]-5-isoquinolylamine], for which the inhibition at 10 µg/mL in experiment [2] is 80%. Turning to `O=[N+]([O-])c1ccc(CN2CCC(Nc3cccc4cnccc34)C2)cc1` (stereo not drawn) [Example 11, N-(5-Isoquinolyl)-N-[1-(4-nitrobenzyl)tetrahydro-1H-3-pyrrolyl]amine], the IC50 in experiment [1] amounted to 660 nM.

As to `c1ccc(CN2CCCC(Nc3cccc4cnccc34)C2)cc1` (stereo not drawn) [Example 23, N-(1-Benzyl-3-piperidyl)-5-isoquinolylamine], in experiment [1], the IC50 was 240 nM.

For the compound `Cc1ccc(CN2CCCC(Nc3cccc4cnccc34)C2)cc1` (stereo not drawn) [Example 26, N-(5-Isoquinolinyl)-N-[1-(4-methylbenzyl)-3-piperidyl]amine], in experiment [1], the IC50 was 180 nM.

As for `O=[N+]([O-])c1ccccc1CN1CCCC(Nc2cccc3cnccc23)C1` (stereo not drawn) [Example 28, N-(5-Isoquinolinyl)-N-[1-(2-nitrobenzyl)-3-piperidyl]amine], the IC50 in experiment [1] turned out to be 580 nM. As for `Nc1ccc(CN2CCCC(Nc3cccc4cnccc34)C2)cc1` (stereo not drawn) [Example 37, N5-[1-(4-Aminobenzyl)-3-piperidyl]-5-isoquinolylamine], the IC50 in experiment [1] was determined as 290 nM.

As for `O=[N+]([O-])c1cc(Cl)ccc1CN1CCCC(Nc2cccc3cnccc23)C1` (stereo not drawn) [Example 31, N5-[1-(4-Chloro-2-nitrobenzyl)-3-piperidyl]-5-isoquinolylamine], in experiment [1], the IC50 was 2300 nM. Same read-out and setting: the figure for `c1cc(NC2CCCN(Cc3ccoc3)C2)c2ccncc2c1` (stereo not drawn) [Example 44, N-[1-(3-Furylmethyl)-3-piperidyl]-N-(5-isoquinolyl)amine] is 110 nM; for `c1cncc(CN2CCC(Nc3cccc4cnccc34)C2)c1` (stereo not drawn) [Example 14, N-(5-Isoquinolyl)-N-[1-(3-pyridylmethyl)tetrahydro-1H-3-pyrrolyl]amine] it is 590 nM; for `c1ccc(CN2CCCC(Nc3cccc4cnccc34)C2)nc1` (stereo not drawn) [Example 32, N-(5-Isoquinolinyl)-N-[1-(2-pyridylmethyl)-3-piperidyl]amine] it is 1300 nM. On to `O=[N+]([O-])c1cccc(CN2CCCC(Nc3cccc4cnccc34)C2)c1` (stereo not drawn) [Example 29, N-(5-Isoquinolinyl)-N-[1-(3-nitrobenzyl)-3-piperidyl]amine], for which, in experiment [1], the IC50 was determined as 1900 nM.

Turning to `Nc1cc(Cl)ccc1CN1CCCC(Nc2cccc3cnccc23)C1` (stereo not drawn) [Example 38, N5-[1-(2-Amino-4-chlorobenzyl)-3-piperidyl]-5-isoquinolylamine], the IC50 in experiment [1] amounted to 400 nM. Same read-out and setting: the figure for `O=[N+]([O-])c1ccccc1CN1CCC(Nc2cccc3cnccc23)C1` (stereo not drawn) [Example 9, N-(5-Isoquinolyl)-N-[1-(2-nitrobenzyl)tetrahydro-1H-3-pyrrolyl]amine] is 570 nM; for `Clc1cccc(Cl)c1CN1CCCC(Nc2cccc3cnccc23)C1` (stereo not drawn) [Example 25, N5-[1-(2,6-Dichlorobenzyl)-3-piperidyl]-5-isoquinolylamine] it is 1200 nM.

These data come from US7615564B2, “Isoquinoline derivatives having kinasae inhibitory activity and drugs containing the same” (Kirin Beer Kabushiki Kaisha, priority 2002, dated 2009).
